Data published in patent US20250002475A1 (EPICS THERAPEUTICS, priority 2023, published 2025).

Columns and labels:
[1] = molecular target: T1, recombinant METTL3/METTL14 complex (Homo sapiens, UniProt Q86U44); test: METTL3/14 Scintillation Proximity Assay (SPA), RNA methyltransferase activity; type: biochemical; settings: 5.31 nM METTL3/14 complex, 250 nM RNA substrate, 1 μM 3H-SAM, 90 min; for compounds marked * best of the two separated forms
T1 construct: purchased Active Motif 311970; host or cells: Sf9 cells
T1 sequence (Q86U44 whole entry): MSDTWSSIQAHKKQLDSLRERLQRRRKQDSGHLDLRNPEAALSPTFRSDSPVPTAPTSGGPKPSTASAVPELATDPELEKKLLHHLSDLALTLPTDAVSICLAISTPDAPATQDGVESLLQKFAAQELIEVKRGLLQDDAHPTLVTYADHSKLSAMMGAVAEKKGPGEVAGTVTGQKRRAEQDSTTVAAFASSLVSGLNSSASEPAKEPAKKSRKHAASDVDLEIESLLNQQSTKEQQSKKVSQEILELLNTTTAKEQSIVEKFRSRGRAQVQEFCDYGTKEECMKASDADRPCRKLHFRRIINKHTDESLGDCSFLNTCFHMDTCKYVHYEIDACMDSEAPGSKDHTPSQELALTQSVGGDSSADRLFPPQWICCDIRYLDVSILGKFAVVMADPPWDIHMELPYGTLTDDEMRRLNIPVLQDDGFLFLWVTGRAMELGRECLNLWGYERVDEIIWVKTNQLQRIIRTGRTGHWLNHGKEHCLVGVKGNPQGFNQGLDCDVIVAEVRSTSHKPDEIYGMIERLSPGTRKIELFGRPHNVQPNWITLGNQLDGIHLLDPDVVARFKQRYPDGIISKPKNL
T1 sequence (Q9HCE5 whole entry partner): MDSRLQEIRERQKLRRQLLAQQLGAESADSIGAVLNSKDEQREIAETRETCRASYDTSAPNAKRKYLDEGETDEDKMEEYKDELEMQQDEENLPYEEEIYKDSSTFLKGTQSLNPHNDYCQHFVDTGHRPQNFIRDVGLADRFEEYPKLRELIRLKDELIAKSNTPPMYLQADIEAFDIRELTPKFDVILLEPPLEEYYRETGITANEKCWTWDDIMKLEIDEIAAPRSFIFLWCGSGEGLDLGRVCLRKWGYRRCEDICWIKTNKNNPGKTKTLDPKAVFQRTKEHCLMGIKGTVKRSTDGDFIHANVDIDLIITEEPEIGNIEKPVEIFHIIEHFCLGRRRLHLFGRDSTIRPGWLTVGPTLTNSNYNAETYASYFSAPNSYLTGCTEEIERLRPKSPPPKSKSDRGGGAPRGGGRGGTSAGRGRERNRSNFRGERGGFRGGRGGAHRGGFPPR

Caov-3 cells = test: Caov-3 cellular viability assay (ATP-Lite, 72 h); type: cell-based; settings: Homo sapiens, ATP-Lite luminescence, % viability relative to DMSO
Procedure, shortened: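 10000 cells/well treated 72 h at 37 °C, 5% CO2, in RPMI-1640 with 10% FBS and 0.1% DMSO final. Viability by ATP-Lite One Step luminescence. Expressed as % of DMSO control, with IC50 from each compound's concentration-response curve.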

Kasumi-1 cells = test: Kasumi-1 cellular viability assay (ATP-Lite, 72 h); type: cell-based; settings: Homo sapiens, ATP-Lite luminescence, % viability relative to DMSO
Procedure, shortened: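 Kasumi-1 AML cells, 15000/well in RPMI-1640 with 10% FBS, were exposed to compound titrations (0.1% final DMSO) for 72 h at 37 °C, 5% CO2. ATP-Lite One Step luminescence gave % viability versus DMSO control, and IC50 came from the concentration-response.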

Compound | IC50 [1] [nM] | IC50 (Caov-3 cells) [nM] | IC50 (Kasumi-1 cells) [nM]
CC(c1ccc(N2CCC[C@@H](NCC3CCC3)C2)cn1)n1cc(-c2cncc(N3CCCC3)n2)nn1 (stereo partly drawn) [Compound 280, (3R)—N-(cyclobutylmethyl)-1-(6-(1-(4-(6-(pyrrolidin-1-yl)pyrazin-2-yl)-1H-1,2,3-triazol-1-yl)ethyl)pyridin-3-yl)piperidin-3-amine] | ≤ 50 | ≤ 500 | ≤ 500
O=C(Nc1cncc(N2CCCC2)n1)C1(c2ccc(N3CCC[C@@H](NCC4CCC4)C3)cc2)COC1 [Compound 281, (R)-3-(4-(3-((cyclobutylmethyl)amino)piperidin-1-yl)phenyl)-N-(6-(pyrrolidin-1-yl)pyrazin-2-yl)oxetane-3-carboxamide] | ≤ 50 | ≤ 500 | ≤ 500
c1cc(Cn2cc(-c3cncc(N4CCCC4)n3)nn2)ncc1N1CCC[C@@H](NCC2CCC2)C1 [Compound 282, (R)-N-(cyclobutylmethyl)-1-(6-((4-(6-(pyrrolidin-1-yl)pyrazin-2-yl)-1H-1,2,3-triazol-1-yl)methyl)pyridin-3-yl)piperidin-3-amine] | ≤ 50 | ≤ 500 | ≤ 500
c1cc(C2(n3cc(-c4cncc(C5CC5)n4)nn3)COC2)ncc1N1CCC[C@@H](NCC2CCC2)C1 [Compound 283, (R)-N-(cyclobutylmethyl)-1-(6-(3-(4-(6-cyclopropylpyrazin-2-yl)-1H-1,2,3-triazol-1-yl)oxetan-3-yl)pyridin-3-yl)piperidin-3-amine] | ≤ 50 | ≤ 500 | ≤ 500
c1cc(N2CCC[C@@H](NCC3CCC3)C2)ccc1Cn1cc(-c2cncc(N3CCCC3)n2)nn1 [Compound 287, (R)-N-(cyclobutylmethyl)-1-(4-((4-(6-(pyrrolidin-1-yl)pyrazin-2-yl)-1H-1,2,3-triazol-1-yl)methyl)phenyl)piperidin-3-amine] | ≤ 50 | ≤ 500 | ≤ 500
c1cc(N2CCC[C@@H](NCC3CCC3)C2)ccc1Cn1cc(-c2cncc(N3CC4CC4C3)n2)nn1 (stereo partly drawn) [Compound 288, (3R)-1-(4-((4-(6-(3-azabicyclo[3.1.0]hexan-3-yl)pyrazin-2-yl)-1H-1,2,3-triazol-1-yl)methyl)phenyl)-N-(cyclobutylmethyl)piperidin-3-amine] | ≤ 50 | ≤ 500 | ≤ 500
c1cnn(-c2cncc(-c3cn(C4(c5ccc(N6CCC[C@@H](NCC7CCC7)C6)cn5)COC4)nn3)n2)c1 [Compound 289, (R)-1-(6-(3-(4-(6-(1H-pyrazol-1-yl)pyrazin-2-yl)-1H-1,2,3-triazol-1-yl)oxetan-3-yl)pyridin-3-yl)-N-(cyclobutylmethyl)piperidin-3-amine] | ≤ 50 | ≤ 500 | ≤ 500
c1cc(C2(n3cc(-c4cncc(N5CC6CC6C5)n4)nn3)COC2)ncc1N1CCC[C@@H](NCC2CCC2)C1 (stereo partly drawn) [Compound 291, (3R)-1-(6-(3-(4-(6-(3-azabicyclo[3.1.0]hexan-3-yl)pyrazin-2-yl)-1H-1,2,3-triazol-1-yl)oxetan-3-yl)pyridin-3-yl)-N-(cyclobutylmethyl)piperidin-3-amine] | ≤ 50 | ≤ 500 | ≤ 500
CC(c1ccc(N2CCC[C@@H](NCC3CCC3)C2)cn1)n1cc(-c2cncc(C3CC3)n2)nn1 (stereo partly drawn) [Compound 292, (3R)—N-(cyclobutylmethyl)-1-(6-(1-(4-(6-cyclopropylpyrazin-2-yl)-1H-1,2,3-triazol-1-yl)ethyl)pyridin-3-yl)piperidin-3-amine] | ≤ 50 | 500 to 5000 | 500 to 5000
c1ccn(-c2cncc(-c3cn(C4(c5ccc(N6CCC[C@@H](NCC7CCC7)C6)cn5)COC4)nn3)n2)c1 [Compound 295, (R)-1-(6-(3-(4-(6-(1H-pyrrol-1-yl)pyrazin-2-yl)-1H-1,2,3-triazol-1-yl)oxetan-3-yl)pyridin-3-yl)-N-(cyclobutylmethyl)piperidin-3-amine] | ≤ 50 | 500 to 5000 | ≤ 500
O=C(Nc1cnc2ccccc2n1)C1(c2ccc(N3CCC[C@@H](NCC4CCC4)C3)cn2)COC1 [Compound 297, (R)-3-(5-(3-((cyclobutylmethyl)amino)piperidin-1-Yl)pyridin-2-yl)-N-(quinoxalin-2-yl)oxetane-3-carboxamide] | ≤ 50 | 500 to 5000 | > 5000
O=C(Nc1cc(=O)n2ccccc2n1)C1(c2ncc(N3CCC[C@@H](NCC4CCC4)C3)cc2F)COC1 [Compound 298, (R)-3-(5-(3-((cyclobutylmethyl)amino)piperidin-1-yl)-3-fluoropyridin-2-yl)-N-(4-oxo-4H-pyrido[1,2-a]pyrimidin-2-yl)oxetane-3-carboxamide] | ≤ 50 | 500 to 5000 | 500 to 5000
c1cc(C2(n3cc(-c4cncc(N5CCCC5)n4)nn3)COC2)ccc1N1CCC[C@@H](NCC2CCC2)C1 [Compound 301, (R)-N-(cyclobutylmethyl)-1-(4-(3-(4-(6-(pyrrolidin-1-yl)pyrazin-2-yl)-1H-1,2,3-triazol-1-yl)oxetan-3-yl)phenyl)piperidin-3-amine] | ≤ 50 | ≤ 500 | ≤ 500
CC(c1ccc(N2CCC[C@@H](NCC34CC(F)(C3)C4)C2)cn1)n1cc(-c2cncc(N3CCCC3)n2)nn1 (stereo partly drawn) [Compound 304, (3R)—N-((3-fluorobicyclo[1.1.1]pentan-1-yl)methyl)-1-(6-(1-(4-(6-(pyrrolidin-1-yl)pyrazin-2-yl)-1H-1,2,3-triazol-1-yl)ethyl)pyridin-3-yl)piperidin-3-amine] | ≤ 50 | ≤ 500 | ≤ 500
CC(c1ccc(N2CCC[C@@H](NCC34CC(F)(C3)C4)C2)nn1)n1cc(-c2cncc(N3CCCC3)n2)nn1 (stereo partly drawn) [Compound 305, (3R)—N-((3-fluorobicyclo[1.1.1]pentan-1-yl)methyl)-1-(6-(1-(4-(6-(pyrrolidin-1-yl)pyrazin-2-yl)-1H-1,2,3-triazol-1-yl)ethyl)pyridazin-3-yl)piperidin-3-amine] | ≤ 50 | ≤ 500 | ≤ 500

Now from value to compound, other results behind:

IC50 [1] [nM] | Compound | IC50 (Caov-3 cells) [nM] | IC50 (Kasumi-1 cells) [nM]
≤ 50 | O=C(Nc1cc(=O)n2ccccc2n1)C1(c2ccc(N3CCC[C@@H](NCC45CC(F)(C4)C5)C3)cn2)COC1 [Compound 263, (R)-3-(5-(3-(((3-fluorobicyclo[1.1.1]pentan-1-yl)methyl)amino)piperidin-1-yl)pyridin-2-yl)-N-(4-oxo-4H-pyrido[1,2-a]pyrimidin-2-yl)oxetane-3-carboxamide] | ≤ 500 | ≤ 500
≤ 50 | COc1cncc(-c2cn(C3(c4ccc(N5CCC[C@@H](NCC6CCC6)C5)cn4)COC3)cn2)c1 [Compound 267, (R)-N-(cyclobutylmethyl)-1-(6-(3-(4-(5-methoxypyridin-3-yl)-1H-imidazol-1-yl)oxetan-3-yl)pyridin-3-yl)piperidin-3-amine] | 500 to 5000 | 500 to 5000
≤ 50 | O=C(Nc1cncc(C2CCCC2)n1)C1(c2ccc(N3CCC[C@@H](NCC4CCC4)C3)cn2)COC1 [Compound 268, (R)-3-(5-(3-((cyclobutylmethyl)amino)piperidin-1-yl)pyridin-2-yl)-N-(6-cyclopentylpyrazin-2-yl)oxetane-3-carboxamide] | 500 to 5000 | 500 to 5000
≤ 50 | O=C(Nc1cncc(N2CCCC2)n1)C1(c2ccc(N3CCC[C@@H](NCC45CC(F)(C4)C5)C3)cn2)COC1 [Compound 269, (R)-3-(5-(3-(((3-fluorobicyclo[1.1.1]pentan-1-yl)methyl)amino)piperidin-1-yl)pyridin-2-yl)-N-(6-(pyrrolidin-1-yl)pyrazin-2-yl)oxetane-3-carboxamide] | ≤ 500 | ≤ 500
≤ 50 | O=C(Nc1cncc(N2CC3CC3C2)n1)C1(c2ccc(N3CCC[C@@H](NCC4CCC4)C3)cn2)COC1 (stereo partly drawn) [Compound 270, N-(6-(3-azabicyclo[3.1.0]hexan-3-yl)pyrazin-2-yl)-3-(5-((R)-3-((cyclobutylmethyl)amino)piperidin-1-yl)pyridin-2-yl)oxetane-3-carboxamide] | ≤ 500 | ≤ 500
≤ 50 | CN(CC1CCC1)[C@@H]1CCCN(c2ccc(C3(C(=O)Nc4cc(=O)n5ccccc5n4)COC3)nc2)C1 [Compound 272, (R)-3-(5-(3-((cyclobutylmethyl)(methyl)amino)piperidin-1-yl)pyridin-2-yl)-N-(4-oxo-4H-pyrido[1,2-a]pyrimidin-2-yl)oxetane-3-carboxamide] | 500 to 5000 | 500 to 5000
≤ 50 | COc1cncc(-c2cn(C(C)c3ccc(N4CCC[C@@H](NCC5CCC5)C4)cn3)cn2)c1 (stereo partly drawn) [Compound 276, (3R)—N-(cyclobutylmethyl)-1-(6-(1-(4-(5-methoxypyridin-3-yl)-1H-imidazol-1-yl)ethyl)pyridin-3-yl)piperidin-3-amine] | ≤ 500 | 500 to 5000
≤ 50 | O=C(Nc1cc(=O)n2ccccc2n1)C1(c2ccc(N3CCC[C@@H](NCC4CCC4)C3)cc2)COC1 [Compound 278, (R)-3-(4-(3-((cyclobutylmethyl)amino)piperidin-1-yl)phenyl)-N-(4-oxo-4H-pyrido[1,2-a]pyrimidin-2-yl)oxetane-3-carboxamide] | ≤ 500 | ≤ 500
≤ 50 | CC(C(=O)Nc1cncc(N2CCCC2)n1)c1ccc(N2CCC[C@@H](NCC3CCC3)C2)nn1 (stereo partly drawn) [Compound 279, 2-(6-((R)-3-((cyclobutylmethyl)amino)piperidin-1-yl)pyridazin-3-yl)-N-(6-(pyrrolidin-1-yl)pyrazin-2-yl)propanamide] | 500 to 5000 | 500 to 5000
